Reference: patent US12331029B2, “Orexin 1 receptor antagonists” (NXERA PHARMA UK LIMITED, priority 2018, dated 2025)

Tests used:
Human OX1 receptor [1] = biological target: T1, Human OX1 receptor (Homo sapiens, UniProt O43613); test: [3H]-radioligand binding assay, human OX1 receptor membranes
T1 sequence (O43613 1-425): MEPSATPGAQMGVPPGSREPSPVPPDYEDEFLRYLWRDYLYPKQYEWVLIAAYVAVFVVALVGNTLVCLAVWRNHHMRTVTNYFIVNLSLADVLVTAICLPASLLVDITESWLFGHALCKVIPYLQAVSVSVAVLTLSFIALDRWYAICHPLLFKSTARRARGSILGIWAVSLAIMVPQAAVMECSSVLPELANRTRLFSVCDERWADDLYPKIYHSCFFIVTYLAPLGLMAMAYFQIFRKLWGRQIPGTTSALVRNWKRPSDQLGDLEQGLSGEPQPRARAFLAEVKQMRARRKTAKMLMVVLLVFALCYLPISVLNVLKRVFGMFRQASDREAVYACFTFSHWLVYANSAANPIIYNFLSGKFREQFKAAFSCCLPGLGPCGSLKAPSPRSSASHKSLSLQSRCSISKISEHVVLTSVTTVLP
Method: (§2) Human OX1 or OX2 receptor were cloned into Invitrogen's (ThermoFisher Scientific, UK) Bac-to-Bac Baculovirus Expression System. P0 baculovirus was generated by transfecting SF9 cells with bacmid DNA using Cellfectin® II transfection reagent (ThermoFisher Scientific, UK, Catalog number 10362-100). Following P0 generation P1 virus was then generated ready for large scale infection and membrane preparation. SF21 cells were grown in expression medium ESF921 (Expression Systems, USA, catalog number 96-001-01) supplemented with 10% heat-inactivated FBS and 1% Pen/Strep and were infected at a cell density of 2.5×10^6 cells/mL and a multiplicity of infection of 1.0 for both human OX1R and OX2R. Incubation was carried out at over 48 h in a shaking incubator set at 27° C. The cell culture was then centrifuged at 2,500 rcf for 10 min at 4° C. The pellets were resuspended in cold PBS supplemented with Roche's Complete EDTA-free protease inhibitor cocktail tablets (Roche Applied Sciences, catalog number 05056489001), 1 mM PMSF and 1 mM EDTA. The resuspended cell paste was then centrifuged at 3,273 rcf for 12 min at 4° C. The supernatant was discarded and the pellet frozen at −80° C. The cell pellet from a 4 L culture was resuspended in buffer containing 50 mM HEPES pH 7.5, 150 mM NaCl, 8 Roche EDTA-Free protease inhibitor cocktail tablets and 1 mM PMSF. The suspension was left stirring at rt for 1 h and then homogenised for 90 s at 9,500 rpm using a VDI 25 (VWR, USA) homogeniser. The cells were then lysed using a Microfluidiser processor M-110L Pneumatic (Microfluidics, USA) at 60 PSI and membranes collected by ultracentrifugation at 204.7 k×g for 1 h. The supernatant was discarded and the pellet was resuspended and homogenised in 90 s at 9,500 rpm in 50 mL (25 mL for each 2 L culture) of buffer containing 50 mM Hepes pH 7.5, 150 mM NaCl, 3 Roche EDTA-free protease inhibitor cocktail tablets and 1 mM PMSF. The resulting membranes were then stored at −80° C.
(§3) [^3H]-radioligand binding assay. After thawing, membrane homogenates were re-suspended in the binding buffer (8.5 mM HEPES, pH 7.4, 1.3 mM CaCl2, 1.2 mM MgSO4, 118 mM NaCl, 4.7 mM KCl, 4 mM NaHCO3, 1.2 mM KH2PO4, 11 mM glucose) to a final assay concentration of 6.4 μg (OX1) or 1.4 μg (OX2) protein per well. Saturation isotherms were determined by the addition of various concentrations (0-30 nM) of [^3H]-4-(2,6-difluoro-4-methoxybenzyl)-2-(5,6-dimethoxypyridin-3-yl)-2H-1,2,4-benzothiadiazin-3(4H)-one 1,1-dioxide (Christopher et al, MedChemComm., 2015, 6, 947-955) in a total reaction volume of 250 μL for 90 min at rt. At the end of the incubation, membranes were filtered onto a 96-well GF/B filter pre-incubated with 0.5% polyethylenimine, with a Tomtec cell harvester and washed 5 times with 0.5 mL distilled water. Non-specific binding (NSB) was measured in the presence of 3.33 μM [4-(5-chloro-1,3-benzoxazol-2-yl)-7-methyl-1,4-diazepan-1-yl][5-methyl-2-(2H-1,2,3-triazol-2-yl)phenyl]methanone (Wertz et al, Angew. Chem. Int. Ed., 2011, 50, 11511-11515). Radioactivity on the filter was counted (1 min) on a Microbeta radiometric plate counter (Perkin Elmer) after addition of 50 μL of scintillation fluid (LabLogic: Part #SG-BXX-14). […] IC50 values were derived from the inhibition curve and the equilibrium dissociation constant (Ki) values were calculated using the Cheng-Prusoff equation.

Human OX2 receptor [2] = biological target: T2, Human OX2 receptor (Homo sapiens, UniProt O43614); test: IPone accumulation assay, CHO cells expressing human OX2 receptor; type: cell-based; details: antagonism of orexin A (EC80) induced inositol phosphate turnover, read-out: fpKb average OX2
T2 sequence (O43614 1-444): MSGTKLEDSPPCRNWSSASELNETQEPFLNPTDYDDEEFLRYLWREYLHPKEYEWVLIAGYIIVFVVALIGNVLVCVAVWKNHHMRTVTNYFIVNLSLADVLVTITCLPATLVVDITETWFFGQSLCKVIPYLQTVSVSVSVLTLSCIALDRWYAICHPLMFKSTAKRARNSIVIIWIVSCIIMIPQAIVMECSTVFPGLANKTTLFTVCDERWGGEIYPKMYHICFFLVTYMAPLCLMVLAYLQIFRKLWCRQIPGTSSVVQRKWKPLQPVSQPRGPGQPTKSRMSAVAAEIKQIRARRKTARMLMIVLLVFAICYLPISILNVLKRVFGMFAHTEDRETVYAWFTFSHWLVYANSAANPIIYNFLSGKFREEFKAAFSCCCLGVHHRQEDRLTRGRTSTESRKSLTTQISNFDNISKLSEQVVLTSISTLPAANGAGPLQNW
Method: (§1) Stable cell lines for the human OX1R and OX2R receptors were generated through the transfection of CHO cells using the transfection reagent Genejuice (Novagen number 70967) and cDNA coding for either the human OX1R or OX2R. Cells were cultured in Sigma Nutrient Mixture F-12 Ham media (catalog number N6658) supplemented with 10% heat-inactivated FBS. Forty-eight hours after transfection, cells were harvested and placed under geneticin selection by culturing in Sigma Nutrient Mixture F-12 Ham media supplemented with 10% heat-inactivated FBS and geneticin (ThermoFisher Catalog number: 10131035). Selection of the final stable clone for each receptor was made on the basis of receptor expression, assay signal to noise and robustness though increasing passage. Selected clones for the human OX1R and OX2R were then frozen down into liquid nitrogen using Cell Freezing Medium-DMSO (Sigma-Aldrich catalog number: C6164).
IPone accumulation assay. A CHO cell line stably expressing either human OX1 or OX2 receptor was used with the IPone HTRF assay kit (CisBio: Part #62IPAPEJ) to measure receptor activation. The assay was optimised to measure the ability (potency; fpKb) of antagonists to reduce agonist (orexin A)-induced inositol phosphate turnover. Briefly, cells were plated onto half area 96-well white walled plates at a density of 12,500 cells/well. Sixteen hours post-plating cell growth media was replaced with antagonist concentration-response curve diluted in stimulation buffer (supplied with the kit). […] After 30 min stimulation in a humidified incubator (37° C.) the assay was terminated by the addition of detection mixture as per manufacturer's instructions. The concentration of compound which reduced orexin-A stimulated turnover of inositol phosphates by 50% (IC50) was calculated by fitting to a four parameter sigmoidal dose response curve. The IC50 values were converted to fpKB values using the orexin A pEC50 value estimated on each plate as well as the challenge concentration interpolated from the orexin A control curve.

Human OX1 receptor [3] = biological target: T1, Human OX1 receptor; test: IPone accumulation assay, CHO cells expressing human OX1 receptor; type: cell-based; details: antagonism of orexin A (EC80) induced inositol phosphate turnover, read-out: fpKb average OX1 (converted)
Method: as §1
IPone accumulation assay. A CHO cell line stably expressing either human OX1 or OX2 receptor was used with the IPone HTRF assay kit (CisBio: Part #62IPAPEJ) to measure receptor activation. The assay was optimised to measure the ability (potency; fpKb) of antagonists to reduce agonist (orexin A)-induced inositol phosphate turnover. Briefly, cells were plated onto half area 96-well white walled plates at a density of 12,500 cells/well. Sixteen hours post-plating cell growth media was replaced with antagonist concentration-response curve diluted in stimulation buffer (supplied with the kit). Cells were incubated in a humidified incubator (37° C.) for 30 min before an EC80 challenge concentration (˜20 nM (OX1) and 40 nM (OX2)) of orexin A (Tocris catalogue number 1455). After 30 min stimulation in a humidified incubator (37° C.) the assay was terminated by the addition of detection mixture as per manufacturer's instructions. The concentration of compound which reduced orexin-A stimulated turnover of inositol phosphates by 50% (IC50) was calculated by fitting to a four parameter sigmoidal dose response curve. The IC50 values were converted to fpKB values using the orexin A pEC50 value estimated on each plate as well as the challenge concentration interpolated from the orexin A control curve.

Human OX2 receptor [4] = biological target: T2, Human OX2 receptor; test: [3H]-radioligand binding assay, human OX2 receptor membranes
Method: as §2, §3

Structure (SMILES)	Ki (Human OX1 receptor [1])	Kb (Human OX2 receptor [2])	Kb (Human OX1 receptor [3])	Ki (Human OX2 receptor [4])
COCc1cccc(-n2nccn2)c1C(=O)N[C@H]1CCC[C@@H]1COc1ccc(F)cc1 [Example 17, N-[(1S,2S)-2-[(4-fluorophenoxy)methyl]cyclopentyl]-2-(methoxymethyl)-6-(triazol-2-yl)benzamide]	31.6 nM	> 631 nM	251 nM	> 1260 nM
COCc1ccc(-n2nccn2)c(C(=O)N[C@H]2CCC[C@@H]2COc2ccc(F)cc2)n1 [Example 18, N-[(1S,2S)-2-[(4-fluorophenoxy)methyl]cyclopentyl]-6-(methoxymethyl)-3-(triazol-2-yl)pyridine-2-carboxamide]	7.94 nM	> 1260 nM	63.1 nM	> 5010 nM
COCc1ccc(-n2nccn2)c(C(=O)N[C@H]2CCC[C@@H]2COc2ccc(Cl)cc2)n1 [Example 19, N-[(1S,2S)-2-[(4-chlorophenoxy)methyl]cyclopentyl]-6-(methoxymethyl)-3-(triazol-2-yl)pyridine-2-carboxamide]	7.94 nM	> 1260 nM	79.4 nM	> 5010 nM
COc1ccc(-n2nccn2)c(C(=O)N[C@H]2CCC[C@@H]2COc2ccc(F)cc2)n1 [Example 20, N-[(1S,2S)-2-[(4-fluorophenoxy)methyl]cyclopentyl]-6-methoxy-3-(triazol-2-yl)pyridine-2-carboxamide]	7.94 nM	> 1260 nM	100 nM	> 5010 nM
COc1ccc(-n2nccn2)c(C(=O)N[C@H]2CCC[C@@H]2COc2ccc(Cl)cc2)n1 [Example 21, N-[(1S,2S)-2-[(4-chlorophenoxy)methyl]cyclopentyl]-6-methoxy-3-(triazol-2-yl)pyridine-2-carboxamide]	12.6 nM	> 631 nM	794 nM	> 5010 nM
Cc1ccc(-n2nccn2)c(C(=O)N[C@H]2CCC[C@@H]2COc2ccc(F)cc2)n1 [Example 22, N-[(1S,2S)-2-[(4-fluorophenoxy)methyl]cyclopentyl]-6-methyl-3-(triazol-2-yl)pyridine-2-carboxamide]	3.98 nM	> 1260 nM	25.1 nM	> 3160 nM
Cc1ccc(-n2nccn2)c(C(=O)N[C@H]2CCC[C@@H]2COc2ccc(Cl)cc2)n1 [Example 23, N-[(1S,2S)-2-[(4-chlorophenoxy)methyl]cyclopentyl]-6-methyl-3-(triazol-2-yl)pyridine-2-carboxamide]	1.26 nM	> 1260 nM	39.8 nM	> 3980 nM
Cc1ccc(-c2ncccn2)c(C(=O)N[C@H]2CCC[C@@H]2COc2ccc(F)cc2)n1 [Example 24, N-[(1S,2S)-2-[(4-fluorophenoxy)methyl]cyclopentyl]-6-methyl-3-pyrimidin-2-yl-pyridine-2-carboxamide]	15.8 nM	> 631 nM	15.8 nM	> 3980 nM

The next lines start with the values.

Ki (Human OX1 receptor [1])	Kb (Human OX2 receptor [2])	Kb (Human OX1 receptor [3])	Ki (Human OX2 receptor [4])	Structure (SMILES)
7.94 nM	> 631 nM	79.4 nM	> 3160 nM	O=C(N[C@H]1CCC[C@@H]1COc1ccc(F)cc1)c1ncccc1-c1ncccn1 [Example 25, N-[(1S,2S)-2-[(4-fluorophenoxy)methyl]cyclopentyl]-3-pyrimidin-2-yl-pyridine-2-carboxamide]
12.6 nM	> 794 nM	251 nM	> 3160 nM	O=C(N[C@H]1CCC[C@@H]1COc1ccc(F)cc1F)c1ncccc1-c1ncccn1 [Example 26, N-[(1S,2S)-2-[(2,4-difluorophenoxy)methyl]cyclopentyl]-3-pyrimidin-2-yl-pyridine-2-carboxamide]
20 nM	> 2510 nM	316 nM	> 5010 nM	O=C(N[C@H]1CCC[C@@H]1COc1ccc(Cl)cc1)c1ncccc1-c1ncccn1 [Example 27, N-[(1S,2S)-2-[(4-chlorophenoxy)methyl]cyclopentyl]-3-pyrimidin-2-yl-pyridine-2-carboxamide]
25.1 nM	> 2510 nM	100 nM	> 1260 nM	O=C(N[C@H]1CCC[C@@H]1COc1ccc(F)c(F)c1)c1ncccc1-c1ncccn1 [Example 28, N-[(1S,2S)-2-[(3,4-difluorophenoxy)methyl]cyclopentyl]-3-pyrimidin-2-yl-pyridine-2-carboxamide]
6.31 nM	> 631 nM	39.8 nM	794 nM	COc1nccc(-n2nccn2)c1C(=O)N[C@H]1CCC[C@@H]1COc1ccc(F)cc1 [Example 29, N-[(1S,2S)-2-[(4-fluorophenoxy)methyl]cyclopentyl]-2-methoxy-4-(triazol-2-yl)pyridine-3-carboxamide]
7.94 nM	> 631 nM	25.1 nM	> 1260 nM	COc1nccc(-c2ncccn2)c1C(=O)N[C@H]1CCC[C@@H]1COc1ccc(F)cc1 [Example 30, N-[(1S,2S)-2-[(4-fluorophenoxy)methyl]cyclopentyl]-2-methoxy-4-pyrimidin-2-yl-pyridine-3-carboxamide]
20 nM	> 2510 nM	50.1 nM	2000 nM	COc1cccc(-c2ncccn2)c1C(=O)N[C@H]1CCC[C@@H]1COc1ccc(F)cn1 [Example 32, N-[(1S,2S)-2-[(5-fluoro-2-pyridyl)oxymethyl]cyclopentyl]-2-methoxy-6-pyrimidin-2-yl-benzamide]
